In patent publication US20070010548A1, “Compounds having inhibitive activity of phosphatidylinositol 3-kinase and methods of use thereof” (ZENTARIS GmbH, priority 2003, published 2007) one finds IC50 and viability data, which are given here for seven molecules.

The structures appear in SMILES notation. Like-named read-outs stand apart in the source and are kept apart here.

In one experiment the target is T1, PI 3-K alpha (Homo sapiens, UniProt P42336).
T1 construct: made in house; host or cells: Sf9 cells, baculovirus expression system; constructs from the lab of Dr. Alex Toker, Harvard University
Put plainly: PI 3-K activity assay, IC50 determination (AlphaScreen luminescent or Fluorescence Polarization). The format is biochemical. The note with it: inhibition of enzyme activity in vitro. Here is the method: Recombinant heterodimeric PI 3-K alpha, consisting of a p110 catalytic subunit and a GST-tagged p85 regulatory subunit, was expressed in Sf9 cells using a baculoviras expression system. Expression constructs were obtained from the lab of Dr. Alex Toker, Harvard University. The method is well known to those skilled in the art and is also described in Stoyanov et al., Science 269, 690-693 (1995).and Stoyanova et al., Biochem. J. 324 :489-495. (1997).
PI 3-kinase reactions were performed in a reaction buffer containing 5 mM HEPES, pH 7, 2.5 mM MgCl2, and 25 μM ATP, containing 50 ng of recombinant PI 3-K with 10 picomoles of diC8 PI(4,5)P2 (Echelon Biosciences) as the substrate. The reactions were allowed to proceed at room temperature for 1-3 hours, then quenched by the addition of EDTA to a final concentration of 10 mM. The final reaction volumes were 10 μl. The compounds to be tested for inhibition were added to a final concentration of 1 μM from stocks in DMSO. The final concentration of DMSO was 1%.
Conversion of the substrate to PI(3,4,5)P3 was determined using a competition assay using Amplified Luminescent Proximity Homogeneous Assay (ALPHA®) technology developed by Perkin Elmer. 0.25 picomoles of recombinant GST-Grp1-PH domain protein and 0.25 picomoles of biotinylated diC6 PI(3,4,5)P3 (Echelon Biosciences) were added to each reaction mixture. Donor and Acceptor beads from the AlphaScreen® GST (Glutathione-S-Transferase) Detection Kit (PerkinElmer) were added to a final concentration of 20 μg/ml. The final volume was 25 μl. The reactions were incubated at 37° C. for two hours, and the luminescent signal was read on a Fusion α microplate reader. Percent inhibition of enzyme activity was determined by comparison to no enzyme (100% inhibition) and DMSO alone (0% inhibition) controls.
An alternate method used for detecting substrate conversion to PI(3,4,5)P3 was a competitive Fluorescence Polarization assay. 125 picomoles of recombinant GST-Grp1-PH domain protein and 0.25 picomoles of TAMRA-I(1,3,4,5)P4 (Echelon Biosciences) were added to each reaction mixture The final volume was 25 μl. Polarization values were measured on a microplate reader using 550 nm excitation/580 nm polarizing emission filters. BODIPY-TMR-I(1,3,4,5)P4 or BODIPY-TMR-PI(3,4,5)P3 could substitute as the fluorescent tracers in this assay. Percent inhibition of enzyme activity was determined by comparison to no enzyme (100% inhibition) and DMSO alone (0% inhibition) controls.
A library of potential PI 3-K inhibitors was tested for activity against PI 3-K alpha in the following manner. From the active compounds identified, twelve were selected as representatives from different chemical groups present in the library and subjected to further analysis. IC50 values were determined for the selected compounds of the present invention. Enzyme activity assays were performed as previously described, in the presence of a range of compound concentrations to allow determination of IC50 values. Enzyme activity and percent inhibition was determined using the AlphaScreen® luminescent assay or a Fluorescence Polarization assay as previously described. These inhibitors may also show activity against other PI 3-K isoforms, including PI 3-K beta, gamma, and delta.
In general terms: Bead proximity is the source of the signal in Alpha formats.

The next experiment deals with SKOV3 cells. The experiment in a line: MTT cell proliferation/viability assay, SKOV3 ovarian cancer cells. The note with it: Homo sapiens. The format is cell-based. As to the method:
(§1) The ovarian cancer cell line SKOV3 is not altered in PI 3-K signaling and should be less sensitive to the anti-proliferative effects produced by treatment with PI 3-K inhibitors, while the OVCAR3 cell line, which is altered in PI 3-K signaling, via amplification of PI 3-K activity, should be sensitive. SKOV3 cells were seeded in 96-well cell culture plates (Greiner) at a density of 20,000 cells per well in McCoys 5A media (GibcoBRL) with 10% fetal calf serum and 20 mM L-glutamine. OVCAR3 cells were seeded at a density of 15,000 cells per well in RPMI 1640 media (GibcoBRL) containing 20 mM 1-glutamine, 0.01 ng/ml bovine insulin, 10 mM Hepes pH 7.4, 1 mM sodium pyruvate, 2.5 g/L glucose, and 20% fetal calf serum. After 24 hours, compounds were added to cell media to a final concentration of 1 μM, and the cells were grown in the presence of the compounds for 48 hours, in media containing 0.5% fetal calf serum. Viability was determined using a MTT cell proliferation assay (R and D Systems) and comparison to DMSO alone controls (100% viability). Compounds which result in reduced viability may act either by inhibiting cell proliferation or by inducing apoptosis (programmed cell death).
(§2) Many of these also show similar selective effects on cell growth. Table 2 summarizes the results of two separate cell proliferation experiments for selected compounds of the present invention.

The test system of the next experiment is OVCAR3 cells. The experiment in a line: MTT cell proliferation/viability assay, OVCAR3 ovarian cancer cells. The format is cell-based. To be noted: Homo sapiens. Here is the method: as §1, §2
Setting [1] is: SK-OV-3, 48 hours, MTT, DMSO alone controls = 100% viability, Trial 1, read-out: Trial 1 SKOV-3 (viability).
Where [2] appears, read: SK-OV-3, 48 hours, MTT, DMSO alone controls = 100% viability, Trial 2, read-out: Trial 2 SKOV-3 (viability).
The mark [3] stands for this setting: SK-OV-3, average of Trial 1 and Trial 2, 48 hours, read-out: Average SKOV3 (viability).
Where [4] appears, read: OVCAR-3, 48 hours, MTT, DMSO alone controls = 100% viability, Trial 1, read-out: Trial 1 OVCAR3 (viability).
[5] abbreviates: OVCAR-3, 48 hours, MTT, DMSO alone controls = 100% viability, Trial 2, read-out: Trial 2 OVCAR3 (viability).
[6] abbreviates: OVCAR-3, average of Trial 1 and Trial 2, 48 hours, read-out: average OVCAR-3 (viability).

One may read the IC50 as the concentration that inhibits the measured activity by half. A higher IC50 goes with a need for much substance. The viability is the share of living cells, or the viability signal relative to a control.

T1 sequence (P42336 whole entry, species assumed): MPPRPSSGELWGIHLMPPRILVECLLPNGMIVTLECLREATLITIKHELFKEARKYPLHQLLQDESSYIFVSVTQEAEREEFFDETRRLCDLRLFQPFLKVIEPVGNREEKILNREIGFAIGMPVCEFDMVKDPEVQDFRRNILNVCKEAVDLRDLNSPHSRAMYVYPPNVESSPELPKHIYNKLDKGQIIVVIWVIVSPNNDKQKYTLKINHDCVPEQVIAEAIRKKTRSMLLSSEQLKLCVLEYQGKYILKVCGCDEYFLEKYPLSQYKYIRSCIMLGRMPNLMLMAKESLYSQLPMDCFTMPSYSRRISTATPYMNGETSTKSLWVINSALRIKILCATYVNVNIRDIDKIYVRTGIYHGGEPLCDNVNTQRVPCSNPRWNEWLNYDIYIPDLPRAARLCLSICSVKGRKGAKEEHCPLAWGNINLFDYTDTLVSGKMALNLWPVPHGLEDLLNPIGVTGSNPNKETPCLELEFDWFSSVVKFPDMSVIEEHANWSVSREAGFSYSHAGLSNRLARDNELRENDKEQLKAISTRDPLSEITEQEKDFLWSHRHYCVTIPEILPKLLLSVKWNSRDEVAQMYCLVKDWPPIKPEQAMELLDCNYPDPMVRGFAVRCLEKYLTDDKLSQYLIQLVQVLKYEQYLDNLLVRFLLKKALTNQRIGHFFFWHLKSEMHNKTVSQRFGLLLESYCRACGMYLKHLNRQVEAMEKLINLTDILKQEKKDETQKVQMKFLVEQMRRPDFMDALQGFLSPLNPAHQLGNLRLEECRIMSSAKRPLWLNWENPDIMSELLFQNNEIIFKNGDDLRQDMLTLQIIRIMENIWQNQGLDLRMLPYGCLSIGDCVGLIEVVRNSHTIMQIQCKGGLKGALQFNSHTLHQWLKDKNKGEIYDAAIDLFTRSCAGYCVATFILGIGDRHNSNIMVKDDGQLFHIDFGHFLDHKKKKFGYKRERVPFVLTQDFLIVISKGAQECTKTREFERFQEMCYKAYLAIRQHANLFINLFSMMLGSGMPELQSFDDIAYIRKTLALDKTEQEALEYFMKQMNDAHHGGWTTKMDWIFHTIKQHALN
T1 sequence (P27986 whole entry partner, species assumed): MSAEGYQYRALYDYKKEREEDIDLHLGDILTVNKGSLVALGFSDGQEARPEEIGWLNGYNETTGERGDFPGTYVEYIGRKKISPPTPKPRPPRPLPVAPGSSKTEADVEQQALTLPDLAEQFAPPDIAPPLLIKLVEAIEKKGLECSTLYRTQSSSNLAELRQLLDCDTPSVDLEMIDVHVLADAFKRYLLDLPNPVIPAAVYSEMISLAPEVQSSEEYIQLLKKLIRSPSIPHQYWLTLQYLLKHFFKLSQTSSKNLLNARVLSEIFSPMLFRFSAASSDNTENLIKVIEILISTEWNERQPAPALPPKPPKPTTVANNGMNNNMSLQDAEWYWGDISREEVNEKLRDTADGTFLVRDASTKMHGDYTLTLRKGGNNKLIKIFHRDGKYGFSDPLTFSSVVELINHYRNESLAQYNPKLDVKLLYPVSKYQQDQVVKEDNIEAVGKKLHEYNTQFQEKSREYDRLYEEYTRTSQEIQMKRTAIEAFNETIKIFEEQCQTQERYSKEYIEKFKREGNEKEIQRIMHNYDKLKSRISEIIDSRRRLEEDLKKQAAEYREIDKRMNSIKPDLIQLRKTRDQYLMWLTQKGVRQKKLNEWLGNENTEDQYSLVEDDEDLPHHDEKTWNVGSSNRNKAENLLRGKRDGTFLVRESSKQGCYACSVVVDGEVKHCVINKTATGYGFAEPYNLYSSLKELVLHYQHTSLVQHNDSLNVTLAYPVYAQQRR

For `CC1(C)CC(=O)C2=C(C1)Nc1c(c(C(C)(C)C)nn1-c1ccc(Cl)c(Cl)c1)C2c1cccc(OCc2ccccc2)c1` (stereo not shown) [Compound 964260], at PI 3-K alpha, half-maximal inhibition (IC50) required 8 µM. The viability at 1 µM in the experiment with SKOV3 cells (setting [1]) was 93%; in the experiment with SKOV3 cells (setting [2]), 85%; in the experiment with SKOV3 cells (setting [3]), 89%; in the experiment on OVCAR3 cells (setting [4]), 41%; with OVCAR3 cells (setting [5]), 53%; in the experiment with OVCAR3 cells (setting [6]), 47%.

For the molecule `CC1(C)CC(=O)C2=C(C1)Nc1c(c(C(C)(C)C)nn1C(C)(C)C)C2c1ccc(OCc2ccccc2)c(OCc2ccccc2)c1` (stereo not shown) [Compound 963985], the IC50 against PI 3-K alpha was determined as 0.5 µM.

At PI 3-K alpha, `COc1ccc(OC)c(C2C3=C(CC(C)(C)CC3=O)Nc3c2c(C(C)(C)C)nn3-c2ccc(C)cc2C)c1` (stereo not shown) [Compound 964232] returned an IC50 of 5 µM. The viability at 1 µM in the experiment on SKOV3 cells (setting [1]) was 98%; in the experiment on SKOV3 cells (setting [2]), 100%; in the experiment with SKOV3 cells (setting [3]), 99%; in the experiment on OVCAR3 cells (setting [4]) it was 45%; in the experiment with OVCAR3 cells (setting [5]), 71%; in the experiment on OVCAR3 cells (setting [6]), 58%.

`CC1(C)CC(=O)C2=C(C1)Nc1c(c(-c3ccccc3)nn1-c1cccc(F)c1)C2c1ccc(C(F)(F)F)cc1` (stereo not shown) [Compound 964661]: on PI 3-K alpha, the IC50 came out at 8 µM. Also, the viability at 1 µM in the experiment on SKOV3 cells (setting [1]) was determined as 99%; with SKOV3 cells (setting [2]), 77.1%; with SKOV3 cells (setting [3]) it was 88%; in the experiment with OVCAR3 cells (setting [4]), 36%; in the experiment with OVCAR3 cells (setting [5]) it was 58.9%; with OVCAR3 cells (setting [6]), 47.5%.

At PI 3-K alpha, `COc1ccccc1C1C2=C(CC(C)(C)CC2=O)Nc2c1c(C(C)(C)C)nn2-c1ccc(Cl)c(C)c1` (stereo not shown) [Compound 964247] registered a concentration for half-maximal inhibition (IC50) of 7 µM. The viability at 1 µM in the experiment on SKOV3 cells (setting [1]) is 100%; with SKOV3 cells (setting [2]), 100%; in the experiment on SKOV3 cells (setting [3]), 100%; in the experiment with OVCAR3 cells (setting [4]), 42%; with OVCAR3 cells (setting [5]) it was 43.7%; in the experiment on OVCAR3 cells (setting [6]), 42.9%.

Consider `Cc1ccc(C2C3=C(CC(C)(C)CC3=O)Nc3c2c(C(C)(C)C)nn3-c2ccc(C)cc2)cc1` (stereo not shown) [Compound 964028, 3-t-butyl-4-(4-methylphenyl)-7,7-dimethyl-1-(4-methylphenyl)-4,7,8,9-tetrahydro-1H-pyrazolo[3,4-b]quinolin-5(6H)-one], for which the IC50 against PI 3-K alpha was 1 µM. Besides, the viability at 1 µM was 100% in the experiment with SKOV3 cells (setting [1]); 99.1% in the experiment on SKOV3 cells (setting [2]); 99.5% with SKOV3 cells (setting [3]); 42% in the experiment on OVCAR3 cells (setting [4]); 45.4% with OVCAR3 cells (setting [5]); 43.7% with OVCAR3 cells (setting [6]).

In turn, `COc1ccc(-n2nc(C(C)(C)C)c3c2NC2=C(C(=O)CC(C)(C)C2)C3c2ccccc2Cl)cc1` (stereo not shown) [Compound 964076, 3-t-butyl-4-(2-chlorophenyl)-7,7-dimethyl-1-(4-methoxyphenyl)-4,7,8,9-tetrahydro-1H-pyrazolo[3,4-b]quinolin-5(6H)-one] had an IC50 against PI 3-K alpha of 3 µM. Further, the viability at 1 µM came to 100% in the experiment on SKOV3 cells (setting [1]); 92.9% in the experiment with SKOV3 cells (setting [2]); 96.5% in the experiment with SKOV3 cells (setting [3]); 41% with OVCAR3 cells (setting [4]); 53.2% with OVCAR3 cells (setting [5]); 47.1% in the experiment with OVCAR3 cells (setting [6]).
